Entries after “also recorded” stand apart in the source; their conditions may differ.
Key:
Format in all cases: in vivo
[1] = system: C57BL/6 mice; assay: Renal IRI in WT mice: serum iron (ELISA), tissue non-heme iron, liver and serum hepcidin
Procedure: (§1) All experiments were performed in accordance with the National Institutes of Health and Institutional Animal Care and Use Guidelines. The Animal Care and Use Committee of the University of Virginia approved all procedures and protocols. C57BL/6 mice from the Jackson Laboratory and hepcidin knockout mice (HAMP−/−), a kind gift from Dr Cindy Roy (John Hopkins University) were used in this study. All experiments were performed on 8-10 weeks old male mice. Kidney ischemia-reperfusion surgery was performed as previously reported (44). The core temperature of the mice was maintained between 34° C. and 36° C. using a heating pad. After anesthetizing the mice (ketamine, 12 mg/ml; atropine, 0.48 mg/ml; xylazine, 24 mg/ml; […] mixture administered per 20 g body weight), bilateral flank incisions were made, both renal pedicles were exposed, and cross-clamped for 26 minutes (severe I/R injury) or 24 minutes (mild I/R injury). After the determined ischemia, clamps were removed, and kidneys were allowed to reperfuse for 24 hours. Ambient postoperative air temperature was maintained between 30° C. and 32° C. until mice had fully recovered. Sham-operated animals underwent bilateral flank incisions without clamping of renal pedicles. Twenty-four hours later, mice were euthanized, and tissues were harvested.
(§2) Animals were divided into three groups, injected intraperitoneally with water and underwent IRI (IRI), injected intraperitoneally with 50-100 μg hepcidin at different time points prior to IRI (Hepcidin-IRI) or were sham operated (Sham). The experimental design is depicted in FIG. 2a.
(§3) Serum iron (Abcam), hepcidin (Intrinsic Lifescience) and IL-6 levels (eBioscience) were measured using commercial ELISA kits, as per manufacturers instructions.
Non-heme iron content in tissue was measured using the method described in published literature with slight modifications (60). Briefly, tissues were accurately weighed, finely cut and placed for 20 hours at 65° C. in a solution of 3M HCl/0.61 M trichloroacetic acid. After cooling to room temperature, the acid extract was spun at 12,000 rpm to collect the supernatant. 0.1 mL of the supernatant was incubated with chromogen solution (1.86 mM bathophenanthroline sulfonate/143 mM thioglycollic acid) for 20 minutes, and OD was measured at 535 nm. A standard curve was generated using an iron standard solution (Ricca Iron AA standard) against water as the blank. Non-heme iron content (μg/g) was calculated using the equation described (60).
(§4) For RNA isolation, frozen tissues were re-suspended in RLT buffer (Qiagen Inc, Valencia, Calif.) and homogenized using TissueLyser system (Qiagen Inc, Valencia, Calif.). Total RNA from tissue homogenate was purified using RNAeasy mini kit (Qiagen Inc, Valencia, Calif.) following manufacturers instructions. 1 μg of RNA was used to synthesize cDNA using the iScript cDNA synthesis kit (Bio-Rad). The cDNA template was mixed with iTAQ SYBR green universal super mix (Bio-Rad) and quantitative PCR was carried out on CFX Connect system (Bio-Rad). Predesigned primers for Caspase-3 and Bcl-2 were purchased from Bio-rad. Glyceraldehyde-3-phosphate dehydrogenase (GAPDH) was amplified in parallel and used as the reference gene in quantification. Data is expressed as the relative gene expression and was calculated using the 2 (−ρρC(T)) method.

[2] = system: C57BL/6 mice; assay: Renal IRI in WT mice: splenic ferroportin (immunofluorescence) and splenic H-Ferritin (Western blot); settings: for splenic H-Ferritin: WT hepcidin IRI vs IRI and vs Sham, p<0.05, FIG. 9b
Procedure: as §1, with “harvested. […]” for “harvested.”
Snap frozen tissue sections were homogenized in Tris-Triton tissue lysis buffer containing complete protease inhibitor cocktail using a Dounce Homogenizer. […] H-Ferritin was measured in the whole kidney and spleen lysates. […] The primary antibodies were detected with Donkey anti-goat Alexa 800 and goat anti-rabbit Alexa 800 antibodies (LiCor Bioscience). Mouse monoclonal GAPDH and β-Actin (Abcam) were used as the loading controls and detected using Donkey anti Mouse Alexa 680 antibody (LiCor Bioscience). Quantitation of data was performed using densitometry software (Licor Bioscience).

[3] = system: C57BL/6 mice; assay: Renal IRI in WT mice: kidney apoptosis (Caspase-3, Bcl-2 real time PCR, TUNEL); settings: for TUNEL reactivity in kidney: 26 minutes ischemia, 24 hours reperfusion, FIG. 3e-f; for kidney Caspase-3 expression: hepcidin before IRI, vs IRI p<0.005, vs sham p<0.03, FIG. 3a; for kidney Bcl2 expression: hepcidin-IRI vs untreated IRI, p<0.0008, FIG. 3b
Procedure: as §1, §2
Apoptotic cells in the kidney were detected by TUNEL assay following the manufacturer's protocol (Roche Diagnostics, Mannheim, Germany). Briefly, PLP-fixed kidney sections were immersed in 3% hydrogen peroxide-methanol (10 minutes) and permeabilized with cold 0.1% Triton-X100 and 0.1% […] (2 minutes). DNA fragments in apoptotic cells were then labeled and identified by terminal transferase dUTP conjugated to fluorescein (Roche Diagnostics) for 60 minutes at room temperature in dark. The apoptotic cells were imaged using a Zeiss Axiovert 200 microscope with Apo Tome (Zeiss).
as §4

[4] = system: hepcidin knockout mice (HAMP−/−); assay: Renal IRI in HAMP-/- mice: serum IL-6 by ELISA; settings: HAMP-/- IRI Vs HAMP-/- Hepcidin-IRI, p<0.05; FIG. 10b
Procedure: as §1, with “Twenty-four hours later, mice were euthanized, and tissues were harvested.” left out
as §3

Mouse hepcidin 25 (DTNFPICIFCCKCCNNSQCGICCKT; listed as Mus musculus)
liver hepcidin gene expression ([1]; hepcidin before IRI, IRI Vs. Hepcidin-IRI p<0.005, FIG. 1e): significantly prevented the IRI-induced upregulation of hepcidin
liver non-heme iron levels ([1]; hepcidin before IRI, vs IRI p<0.0001): effectively prevented IRI-induced depletion of liver non-heme iron
splenic non-heme iron content ([1]; hepcidin before IRI, vs IRI p<0.001, vs sham p<0.05): significantly higher splenic non-heme iron content than IRI or sham groups
kidney non-heme iron content ([1]; hepcidin before IRI, vs IRI, p<0.05, FIG. 1b): significantly prevented IRI-induced kidney iron accumulation
serum iron levels ([1]; hepcidin i.p. before IRI, vs untreated IRI, p<0.001, FIG. 1a): significantly reduced IRI-induced increase in serum iron levels
serum hepcidin levels ([1]; hepcidin-treated IRI vs sham, FIG. 1f): not significantly different between hepcidin-treated and sham groups
splenic H-Ferritin [2]: increased splenic H-Ferritin levels
splenic H-Ferritin ([2]; listed as hepcidin): significantly higher H-Ferritin compared to both untreated IRI mice and sham controls
splenic ferroportin expression ([2]; hepcidin treatment, renal IRI, FIG. 9a bottom panel): dramatic decrease in surface expression of ferroportin; also recorded: degradation of ferroportin
TUNEL reactivity in kidney [3]: reduced by Hepcidin pretreatment
TUNEL reactivity in kidney ([3]; listed as hepcidin): remarkably fewer TUNEL-positive tubules
kidney Caspase-3 expression [3]: significantly reduced IRI-induced Caspase-3 expression; also recorded: lower transcriptional activation of pro apoptotic Caspase3
kidney Caspase-3 expression ([3]; listed as hepcidin): even lower than the sham mice
kidney Bcl2 expression [3]: better preservation of anti apoptotic Bcl2
kidney Bcl2 expression ([3]; listed as hepcidin): significantly higher expression of Bcl2 compared to untreated IRI mice
serum IL-6 levels [4]: prevented IRI-induced increase in IL-6 levels; also recorded: significantly reduced serum IL6 compared to untreated
